In patent US20040208866A1, “Methods of regulating body weight” (priority 2002, published 2004):

Assays:
[1] = system: antral portion of the stomach; assay: Gastrointestinal contractility: distance between transducing crystals on the antral stomach; format: in vivo, Sprague-Dawley rats
Text: Two male Sprague-Dawley rats, approximately 12 weeks old (Harlan, Indianapolis, Ind.) were anesthetized with urethane and their stomachs were exposed through a small abdominal incision. Two 2.4 mm transducing crystals (Sonometrics, Ontario, Canada) were placed on the antral portion of the stomach such that circular contractions could be monitored as a change in the distance between the two crystals. The crystals were attached with VETBOND TISSUE ADHESIVE (3M, St. Paul, Minn.). […] The amplitude of the NE-induced decrease was approximately 50% of the acetylcholine-induced increase in distance. Both responses were transient. A negative control of […] of phosphate buffer solution (PBS) applied topically between the crystals had no effect. A 14 amino acid zsig33 peptide (zsig33-1, as shown in Example 4) was dissolved in PBS and […] was applied topically for a final concentration of 1 μg, 10 μg or 100 μg.

Balb C male mice = assay: Binding studies of FITC-labelled zsig33 peptides in situ after tail vein injection; format: in vivo; conditions: FITC-labelled peptide, 0.5 mg per mouse by tail vein, 15 minutes circulation, fluorescent microscopy at 495 nm
Experimental: Ten week old Balb C male mice were anesthetized via intramuscular injection and tested for binding of zsig33 peptides in vivo.
Two peptides were tested: the first peptide, zsig33-1, (See Example 4) consisted of residues 24 to 37 of SEQ ID NO:2, and the second peptide, zsig33-2, consisted of residues 24 to 41 of SEQ ID NO:2. A single glycine was used as a negative control. Additionally, a “scrambled” negative control consisting of residues the first peptide which had been rearranged (SEQ ID NO:15) was also tested. The peptides and controls were coupled to fluorescein isothiocyantate (FITC, Molecular Probes, Eugene, Oreg.) in the following manner: The peptides, glycine control and FITC were dissolved in 0.1 M sodium bicarbonate at pH 9.0 to a concentration of 2.0 mg/ml for the peptides and glycine control and 5 mg/ml for FITC, avoiding exposure of the FITC to strong light. […] The buffer was changed daily and unbound FITC in the post-dialyzed buffer was measured by HPLC. […] Peptide- or glycine-bound FITC was determined by measuring the absorbance of the dialyzed FITC-bound material at 498 nm and dividing by the extinction coefficient of fluorescein, […]. The molar ratio of fluorescein to peptide (mole FITC/mole peptide) was then determined. […]

ob/ob mice [2] = assay: Glucose absorption after oral glucose challenge; format: in vivo; conditions: 100 μg by oral gavage 30 minutes prior to oral glucose challenge, female ob/ob mice
Experimental: Eight female ob/ob mice, approximately 6 weeks old (Jackson Labs, Bar Harbor, Me.) were adapted to a 4 hour daily feeding schedule for two weeks. After two weeks on the feeding schedule, the mice were given 100 μg of a zsig33 peptide (zsig33-1, as shown in Example 4) in 100 μl sterile 0.1% BSA by oral gavage, immediately after their eating period (post-prandially). Thirty minutes later, the mice were challenged orally with a 0.5 ml volume of 25% glucose. Retroorbital bleeds were done to determine serum glucose levels. Blood was drawn prior to zsig33 dosing, prior to oral glucose challenge, and at 1, 2, 4, and 20 hours following the glucose challenge.

[3] = system: stomachs of fasted male Sprague-Dawley rats; assay: Gastric emptying: transit of phenol red through the stomach; format: in vivo; conditions: 1 μg applied topically to the stomach 5 minutes after gavage, read 30 minutes after the gavage
Experimental: The effect of topically applied zsig33 peptide (amino acid 24 to 37 of SEQ ID NO: 2) on the transit of phenol red through the stomachs of fasted male Sprague-Dawley rats (Harlan, Indianapolis, Ind.) was evaluated. The rats (6 animals, 8 weeks old) were fasted 24 hrs prior to being anesthetized with urethane (0.5 ml/100 grams of 25% solution). After anesthetizing, the animals were orally gavaged with 1 ml of Phenol Red solution (50 μg/ml in 2% methylcellulose solution).
The stomach of each animal was exposed through a small abdominal incision and either 1 μg zsig33 peptide or a 14 amino acid control of a scrambled sequence peptide was applied topically to the stomach five minutes following the gavage. The amount of Phenol Red remaining in the stomach was determined by measuring optical density of the extracted stomach contents 30 minutes after the gavage.

ob/ob mice [4] = assay: Body weight, food intake and glucose clearance, 14-day oral dosing; format: in vivo; conditions: 1 μg/mouse orally twice daily for fourteen days, versus scrambled peptide
Experimental: Sixteen female ob/ob mice, 8 weeks old, (Jackson Labs, Bar Harbor, Me.) were adapted to a special 4 hour daily feeding schedule for two weeks. The were fed ad libitum from 7:30-11:30 am daily. After two weeks on the feeding schedule, the mice were divided into two groups of 8. One group was given 1.0 μg/mouse of zsig33-1 (14 amino acid peptide) and the other vehicle (a 14 amino acid scrambled sequence peptide) in […] sterile 0.1% BSQA by oral gavage just prior to receiving food, and at the end of the 4 hour feeding period. The mice were […] twice daily for fourteen days, during which time food intake and body weight was measured daily. On day 14, immediately after the second oral gavage of the zsig33-1 peptide, the mice were challenged orally with an 0.5 ml volume of 25% glucose. Retro-orbital bleeds were done to determine serum glucose levels immediately prior to administration of the zsig33-1 peptide or vehicle ([…].), and also at 0, 1, 2, and 4 hours following the glucose challenge.

Compound | amplitude of the NE-induced decrease relative to the acetylcholine-induced increase in distance ([1]; 10 ml of 1 mM applied topically) | change in distance between the two crystals ([1]; 10 ml of 1 mM applied topically to the stomach, anesthetized rats) | fluorescence in duodenum, jejunum and kidney compared to the glycine and scrambled controls (Balb C male mice) | change in crystal distance ([1]; 1 μg peptide in PBS applied topically) | rate and amplitude of the contractions ([1]; 10 μg and 100 μg applied topically, compared with 1 μg) | post-prandial glucose absorption (serum glucose) (ob/ob mice [2]) | reduction of the amount of Phenol Red remaining in the stomach compared to a scrambled peptide [3] | daily body weight (ob/ob mice [4]) | daily food intake (ob/ob mice [4])
NC[C@H](O)c1ccc(O)c(O)c1 [norepinephrine, reference compound] | approximately 50% | reduction in the distance between the two crystals |  |  |  |  |  |  | 
zsig33-1: 14 amino acid peptide corresponding to residue 24 (Gly) to residue 37 (Gln) of SEQ ID NO:2 (GSSFLSPEHQRVQQ; listed as Homo sapiens) |  |  | increased fluorescence in duodenum, jejunum and in the collecting ducts and convoluted tubules of the kidney | sustained, rhythmic increase and decrease in crystal distance | enhanced responses in both rate and amplitude | enhanced post-prandial glucose absorption | approximately 25% | no affect | no affect
zsig33-2: peptide consisting of residues 24 to 41 of SEQ ID NO:2 (GSSFLSPEHQRVQQRKES; listed as Homo sapiens) |  |  | increased fluorescence in duodenum, jejunum and in the collecting ducts and convoluted tubules of the kidney |  |  |  |  |  | 
